The subject of this experiment is Haemaphysalis longicornis. The experiment can be described thus: Test Example 6: filter paper contact test, fatality of ticks, compound in single solvent. Format: in vivo. Particulars: 63.6 mg/ml, 0.2 ml on filter paper (treatment amount 2000 mg/m^2), after 24 hours at 25° C.; for Fatality rate of tick (%) Example 2 diisobutyl adipate: solvent diisobutyl adipate; for Fatality rate of tick (%) Example 1 diisopropyl adipate: solvent diisopropyl adipate; for Fatality rate of tick (%) Comparative Example 1 Propylene Carbonate: solvent propylene carbonate. The protocol:
The halogen-containing organosulfur compound (33) or (35) was dissolved in a solvent such that the concentration of the halogen-containing organosulfur compound was 63.6 mg/ml to a test solution. A filter paper was put on the bottom face of a glass petri dish with 7 cm diameter and treated with 0.2 ml of the test solution (treatment amount: 2000 mg/m^2). On the filter paper, 10 Haemaphysalis longicornis were released and allowed to contact the filter paper. The glass petri dish was allowd to stand still at 25° C. After 24 hours, fatalities of the insects were observed.

Consider `CON=C1CCC(C(C#N)S(=O)(=O)CCC(F)(F)F)CC1` (stereo not drawn) [Compound (33), 2-[4-(methoxyimino)cyclohexyl]-2-(3,3,3-trifluoropropylsulfonyl)acetonitrile], for which the “Fatality rate of tick (%) Example 2 diisobutyl adipate” value is recorded as 85%, the “Fatality rate of tick (%) Example 1 diisopropyl adipate” value worked out at 100% and the “Fatality rate of tick (%) Comparative Example 1 Propylene Carbonate” value was determined as 25%.

As to `CCON=C1CCC(C(C#N)S(=O)(=O)CCC(F)(F)F)CC1` (stereo not drawn) [Compound (35), 2-[4-(ethoxyimino)cyclohexyl]-2-(3,3,3-trifluoropropylsufonyl)acetonitrile], the “Fatality rate of tick (%) Example 2 diisobutyl adipate” value is reported as 80%, the “Fatality rate of tick (%) Example 1 diisopropyl adipate” value is 100% and the “Fatality rate of tick (%) Comparative Example 1 Propylene Carbonate” value was 20%.

These data come from patent US20110160251A1, “ANIMAL ECTOPARASITE CONTROL COMPOSITION” (priority 2009, published 2011).
